Holding throughout (type): cell-based
The test system of test [1] is Pseudomonas syringae pv. syringae EPS94. The conditions noted are these: 48 h. On the procedure: (§1) The antibacterial activity of the designed cyclic peptides was assayed against P. syringae pv. syringae, X. axonopodis pv. vesicatoria, and E. amylovora at 3.1, 6.2, 12.5, 25, and 50 μM. Peptides BPC194 and BPC198 were also included in these assays for comparison purposes.
(§2) The following plant pathogenic bacterial strains were used: Erwinia amylovora PMV6076 (Institut National de la Recherche Agronomique, Angers, France); Pseudomonas syringae pv. syringae EPS94 (Institut de Tecnologia Agroalimentària, Universitat de Girona, Spain); and Xanthomonas axonopodis pv. vesicatoria 2133-2 (Instituto Valenciano de Investigaciones Agrarias, Valencia, Spain). All bacteria were stored in Luria Bertani (LB) broth supplemented with glycerol (20%) and maintained at –80 °C. E. amylovora and P. syringae pv. syringae were scrapped from LB agar after growing for 24 h and X. axonopodis pv. vesicatoria after growing for 48 h at 25 °C. The cell material was suspended in sterile water to obtain a suspension of 10^8 CFU mL^−1.
(§3) Lyophilized peptides were solubilized in sterile Milli-Q water to a final concentration of 1000 μM and sterilized through a 0.22-μm pore filter. For MIC assessment, dilutions of the synthetic peptides were made to obtain a final concentration of 500, 250, 125, 62.5, 31.2, and 15.6 μM. Twenty microlitres of each dilution were mixed in a microtiter plate well with 20 μL of the corresponding suspension of the bacterial indicator and 160 μL of Trypticase Soy Broth (TSB) (BioMèrieux, Craponne, France) to a total volume of 200 μL. Three replicates for each strain, peptide, and concentration were used. Positive controls contained water instead of peptide and negative controls contained peptides without bacterial suspension. Bacterial growth was automatically determined by an optical density measurement at 600 nm (Bioscreen C, Labsystem, Helsinki, Finland). Microplates were incubated at 25 °C with 20 s shaking before hourly absorbance measurements for 48 h. Each experiment was repeated twice. The MIC was taken as the lowest peptide concentration with no growth at the end of the experiment. The inhibition of growth (I) was calculated as a percentage of the positive control using the equation: I = 100 × [(AC − AS)/AC], where AC is the area under the curve of the control, and AS is the area under the curve of a given peptide concentration.

Test [2] relates to Xanthomonas axonopodis pv. vesicatoria 2133-2. The note with it: Trypticase Soy Broth, 25 °C, 48 h, OD 600 nm (Bioscreen C), peptides at 3.1, 6.2, 12.5, 25, 50 μM, three replicates, experiment repeated twice, MIC = lowest concentration with no growth. On the procedure: as §1, §2, §3
The subject of test [3] is Erwinia amylovora PMV6076. In words: Antibacterial activity (MIC), growth inhibition in microtiter plates. The note with it: Trypticase Soy Broth, 25 °C, 48 h, OD 600 nm (Bioscreen C), peptides at 3.1, 6.2, 12.5, 25, 50 μM, three replicates, experiment repeated twice, MIC = lowest concentration with no growth. How it is done: as §1, §2, §3

Peptide text beside a SMILES is read from it.

In the case of `CC(C)C[C@@H]1NC(=O)[C@H](CCC(N)=O)NC(=O)[C@H](CC(C)C)NC(=O)[C@H](CCCCN)NC(=O)[C@H](CCCCN)NC(=O)[C@H](CCCCN)NC(=O)[C@H](CCCCN)NC(=O)[C@H](Cc2ccccc2)NC(=O)[C@H](CCCCN)NC(=O)[C@H](CCCCN)NC1=O` [BPC496] (cyclo(FKKKKLQLKK)), the “MIC Intervals, Pss” value in test [1] lay in the range of 6.2 to 12.5 µM. The “MIC Intervals, Xav” value in test [2] fell in the range of 6.2 to 12.5 µM. In addition, the “MIC Intervals, Ea” value in test [3] was greater than 50 µM.

Regarding `CC(C)C[C@@H]1NC(=O)[C@H](CCCCN)NC(=O)[C@H](CCCCN)NC(=O)[C@H](CCCCN)NC(=O)[C@H](CCC(N)=O)NC(=O)[C@H](Cc2ccccc2)NC(=O)[C@H](CCCCN)NC(=O)[C@H](CCCCN)NC(=O)[C@H](CCCCN)NC(=O)[C@H](CC(C)C)NC1=O` [BPC492] (cyclo(FQKKKLLKKK)), the “MIC Intervals, Pss” value in test [1] lay within 12.5 to 25 µM. In test [2], the “MIC Intervals, Xav” value fell in the range of 12.5 to 25 µM. Besides, in test [3], the “MIC Intervals, Ea” value is greater than 50 µM.

As to `CC(C)C[C@@H]1NC(=O)[C@H](CCCCN)NC(=O)[C@H](CCC(N)=O)NC(=O)[C@H](CCCCN)NC(=O)[C@H](CCCCN)NC(=O)[C@H](CC(C)C)NC(=O)[C@H](Cc2ccccc2)NC(=O)[C@H](CCCCN)NC(=O)[C@H](CCCCN)NC(=O)[C@H](CCCCN)NC1=O` [BPC914] (cyclo(FLKKQKLKKK)), the “MIC Intervals, Pss” value in test [1] was 12.5 to 25 µM. Also, the “MIC Intervals, Xav” value in test [2] lay in the range of 12.5 to 25 µM. The “MIC Intervals, Ea” value in test [3] was greater than 50 µM.

Regarding `CC(C)C[C@@H]1NC(=O)[C@H](CCCCN)NC(=O)[C@H](CCCCN)NC(=O)[C@H](CCC(N)=O)NC(=O)[C@H](CC(C)C)NC(=O)[C@H](CCCCN)NC(=O)[C@H](CCCCN)NC(=O)[C@H](Cc2ccccc2)NC(=O)[C@H](CCCCN)NC(=O)[C@H](CCCCN)NC1=O` [BPC194, c(KKLKKFKKLQ)] (cyclo(FKKLQKKLKK)), the “MIC Intervals, Pss” value in test [1] is 3.1 to 6.2 µM. In addition, the “MIC Intervals, Xav” value in test [2] was in the range of 3.1 to 6.2 µM. In test [3], the “MIC Intervals, Ea” value fell in the range of 6.2 to 12.5 µM.

Turning to `CC(C)C[C@@H]1NC(=O)[C@H](CCCCN)NC(=O)[C@H](CCCCN)NC(=O)[C@H](CCC(N)=O)NC(=O)[C@H](Cc2ccccc2)NC(=O)[C@H](CCCCN)NC(=O)[C@H](CCCCN)NC(=O)[C@H](CC(C)C)NC(=O)[C@H](CCCCN)NC(=O)[C@H](CCCCN)NC1=O` [BPC490] (cyclo(FQKKLKKLKK)), in test [2], the “MIC Intervals, Xav” value was in the range of 3.1 to 6.2 µM. Besides, in test [3], the “MIC Intervals, Ea” value was 12.5 to 25 µM.

Take `CC(C)C[C@@H]1NC(=O)[C@H](CCCCN)NC(=O)[C@H](CCCCN)NC(=O)[C@H](CCCCN)NC(=O)[C@H](CC(C)C)NC(=O)[C@H](CCCCN)NC(=O)[C@H](CCC(N)=O)NC(=O)[C@H](Cc2ccccc2)NC(=O)[C@H](CCCCN)NC(=O)[C@H](CCCCN)NC1=O` [BPC924] (cyclo(FQKLKKKLKK)): the “MIC Intervals, Xav” value in test [2] fell in the range of 1.6 to 3.1 µM. The “MIC Intervals, Ea” value in test [3] is 12.5 to 25 µM.

Consider `CC(C)C[C@@H]1NC(=O)[C@H](CCCCN)NC(=O)[C@H](CCCCN)NC(=O)[C@H](CCCCN)NC(=O)[C@H](CCCCN)NC(=O)[C@H](Cc2ccccc2)NC(=O)[C@H](CCCCN)NC(=O)[C@H](CC(C)C)NC(=O)[C@H](CCCCN)NC(=O)[C@H](CCC(N)=O)NC1=O` [BPC916] (cyclo(FKKKKLQKLK)), for which, in test [1], the “MIC Intervals, Pss” value lay within 6.2 to 12.5 µM. Besides, in test [2], the “MIC Intervals, Xav” value fell in the range of 12.5 to 25 µM. In addition, the “MIC Intervals, Ea” value in test [3] was greater than 50 µM.

For `CC(C)C[C@@H]1NC(=O)[C@H](CCC(N)=O)NC(=O)[C@H](Cc2ccccc2)NC(=O)[C@H](CC(C)C)NC(=O)[C@H](CCCCN)NC(=O)[C@H](CCCCN)NC(=O)[C@H](CCCCN)NC(=O)[C@H](CCCCN)NC(=O)[C@H](CCCCN)NC(=O)[C@H](CCCCN)NC1=O` [BPC486] (cyclo(FQLKKKKKKL)), the “MIC Intervals, Pss” value in test [1] lay in the range of 12.5 to 25 µM. Also, in test [3], the “MIC Intervals, Ea” value is greater than 50 µM.

In the case of `CC(C)C[C@@H]1NC(=O)[C@H](CCCCN)NC(=O)[C@H](CCCCN)NC(=O)[C@H](CCCCN)NC(=O)[C@H](Cc2ccccc2)NC(=O)[C@H](CCCCN)NC(=O)[C@H](CCC(N)=O)NC(=O)[C@H](CC(C)C)NC(=O)[C@H](CCCCN)NC(=O)[C@H](CCCCN)NC1=O` [BPC918] (cyclo(FKKKLKKLQK)), in test [2], the “MIC Intervals, Xav” value lay in the range of 1.6 to 3.1 µM. Also, the “MIC Intervals, Ea” value in test [3] fell in the range of 12.5 to 25 µM.

Turning to `CC(C)C[C@@H]1NC(=O)[C@H](CCCCN)NC(=O)[C@H](CCCCN)NC(=O)[C@H](CCCCN)NC(=O)[C@H](Cc2ccccc2)NC(=O)[C@H](CCCCN)NC(=O)[C@H](CCC(N)=O)NC(=O)[C@H](CCCCN)NC(=O)[C@H](CCCCN)NC(=O)[C@H](CC(C)C)NC1=O` [BPC920] (cyclo(FKKKLLKKQK)), in test [1], the “MIC Intervals, Pss” value was 12.5 to 25 µM. Further, the “MIC Intervals, Xav” value in test [2] lay within 25 to 50 µM. For the same compound, in test [3], the “MIC Intervals, Ea” value was greater than 50 µM.

Take `CC(C)C[C@@H]1NC(=O)[C@H](CCCCN)NC(=O)[C@H](CCCCN)NC(=O)[C@H](Cc2ccccc2)NC(=O)[C@H](CCCCN)NC(=O)[C@H](CCCCN)NC(=O)[C@H](CCCCN)NC(=O)[C@H](CC(C)C)NC(=O)[C@H](CCCCN)NC(=O)[C@H](CCC(N)=O)NC1=O` [BPC198, c(KLKKKFKKLQ)] (cyclo(FKKLQKLKKK)): in test [1], the “MIC Intervals, Pss” value lay in the range of 3.1 to 6.2 µM. For the same compound, in test [2], the “MIC Intervals, Xav” value lay within 3.1 to 6.2 µM. Besides, the “MIC Intervals, Ea” value in test [3] is 12.5 to 25 µM.

For `CC(C)C[C@@H]1NC(=O)[C@H](CCCCN)NC(=O)[C@H](CCCCN)NC(=O)[C@H](CCCCN)NC(=O)[C@H](CCCCN)NC(=O)[C@H](CC(C)C)NC(=O)[C@H](CCCCN)NC(=O)[C@H](Cc2ccccc2)NC(=O)[C@H](CCCCN)NC(=O)[C@H](CCC(N)=O)NC1=O` [BPC922] (cyclo(FKLKKKKLQK)), the “MIC Intervals, Pss” value in test [1] was in the range of 12.5 to 25 µM. For the same compound, in test [2], the “MIC Intervals, Xav” value lay in the range of 12.5 to 25 µM. In addition, in test [3], the “MIC Intervals, Ea” value is greater than 50 µM.

As to `CC(C)C[C@@H]1NC(=O)[C@H](CCC(N)=O)NC(=O)[C@H](CCCCN)NC(=O)[C@H](CCCCN)NC(=O)[C@H](CC(C)C)NC(=O)[C@H](Cc2ccccc2)NC(=O)[C@H](CCCCN)NC(=O)[C@H](CCCCN)NC(=O)[C@H](CCCCN)NC(=O)[C@H](CCCCN)NC1=O` [BPC494] (cyclo(FLKKQLKKKK)), the “MIC Intervals, Pss” value in test [1] lay in the range of 6.2 to 12.5 µM. Moreover, the “MIC Intervals, Xav” value in test [2] lay in the range of 6.2 to 12.5 µM. For the same compound, in test [3], the “MIC Intervals, Ea” value was greater than 50 µM.

Consider `CC(C)C[C@@H]1NC(=O)[C@H](CCCCN)NC(=O)[C@H](CCC(N)=O)NC(=O)[C@H](CC(C)C)NC(=O)[C@H](CCCCN)NC(=O)[C@H](Cc2ccccc2)NC(=O)[C@H](CCCCN)NC(=O)[C@H](CCCCN)NC(=O)[C@H](CCCCN)NC(=O)[C@H](CCCCN)NC1=O` [BPC482] (cyclo(FKLQKLKKKK)), for which the “MIC Intervals, Xav” value in test [2] lay in the range of 6.2 to 12.5 µM. In test [3], the “MIC Intervals, Ea” value was greater than 50 µM.

For the compound `CC(C)C[C@@H]1NC(=O)[C@H](CCC(N)=O)NC(=O)[C@H](CC(C)C)NC(=O)[C@H](Cc2ccccc2)NC(=O)[C@H](CCCCN)NC(=O)[C@H](CCCCN)NC(=O)[C@H](CCCCN)NC(=O)[C@H](CCCCN)NC(=O)[C@H](CCCCN)NC(=O)[C@H](CCCCN)NC1=O` [BPC484] (cyclo(FLQLKKKKKK)), the “MIC Intervals, Pss” value in test [1] lay in the range of 12.5 to 25 µM. For the same compound, in test [2], the “MIC Intervals, Xav” value was 25 to 50 µM. In test [3], the “MIC Intervals, Ea” value was greater than 50 µM.

With `CC(C)C[C@@H]1NC(=O)[C@H](CCCCN)NC(=O)[C@H](CCC(N)=O)NC(=O)[C@H](Cc2ccccc2)NC(=O)[C@H](CCCCN)NC(=O)[C@H](CC(C)C)NC(=O)[C@H](CCCCN)NC(=O)[C@H](CCCCN)NC(=O)[C@H](CCCCN)NC(=O)[C@H](CCCCN)NC1=O` [BPC488] (cyclo(FQKLKKKKLK)), the “MIC Intervals, Xav” value in test [2] was 6.2 to 12.5 µM. The “MIC Intervals, Ea” value in test [3] was greater than 50 µM.

For `CC(C)C[C@@H]1NC(=O)[C@H](CCCCN)NC(=O)[C@H](CCCCN)NC(=O)[C@H](CCCCN)NC(=O)[C@H](Cc2ccccc2)NC(=O)[C@H](CC(C)C)NC(=O)[C@H](CCCCN)NC(=O)[C@H](CCCCN)NC(=O)[C@H](CCCCN)NC(=O)[C@H](CCC(N)=O)NC1=O` [BPC480] (cyclo(FKKKLQKKKL)), the “MIC Intervals, Pss” value in test [1] was 12.5 to 25 µM. Also, the “MIC Intervals, Xav” value in test [2] fell in the range of 12.5 to 25 µM. Besides, the “MIC Intervals, Ea” value in test [3] is greater than 50 µM.
